Experimental data from US12318398B2, “MST1 kinase inhibitor and use thereof” (priority 2018, dated 2025).
Read-outs that look alike come from different tables or passages of the source.

Legend:
MST1 [1] = biological target: T1, MST1 (Homo sapiens (Human), UniProt Q13043); assay: In vitro enzyme activity test (ADP-GLO); type: biochemical; settings: ATP 50 μM, 37° C. 1 hour, read-out: MST1 (IC50/μM)
Procedure: The IC50 values of the compounds against MST1 were determined. The protein kinase MST1 and the substrate were obtained from commercial sources.
5.4 μL of protein kinase MST1 diluted to a certain concentration (final concentration was 2.5 ng/μL) and 1 μL of serially diluted drug compounds and control compound XMU-MP-1 were taken to react at room temperature for 10 minutes (final drug concentrations were 10 μM, 1 μM, 0.3 μM, 0.1 μM, 0.03 μM, 0.01 μM, 0.003 μM, 0.001 μM, respectively).
6 μL of a mixture of ATP (with a final reaction concentration of 50 μM) and substrate was added to the above reaction tube to react at 37° C. for 1 hour. The reaction buffer was 40 mM Tris, 7.5; 20 mM MgCl2; 0.1 mg/ml BSA; 50 μM DTT.
5 μL of the kinase mixture after the reaction was taken to a 384-well plate, and 5 μL of ADP-GLO™ reagent was added thereto. After reaction at room temperature for 40 minutes, the kinase reaction was terminated and the remaining ATP was consumed.
10 μL of a kinase detection reagent was added to convert ADP into ATP, and a coupled luciferase/luciferin reaction was utilized to detect the newly synthesized ATP. Envision was used to read and plot the data, and calculate the IC50 value.

C57BL/6 mice = assay: Liver injury repair experiment (paracetamol/APAP-induced); type: in vivo
Procedure: C57BL/6 mice, male, 20 g, were maintained in a SPF animal room. Thirty C57BL/6 mice were fasted for 12 hours overnight, and 5 mice of which were intraperitoneally injected with normal saline to act as a normal control group, and the other 25 mice were intraperitoneally injected with paracetamol (APAP) (purchased from Sigma)-600 mg/kg, and randomly divided into 5 groups after 30 minutes, wherein the 5 groups include vehicle (5% DMSO in water), compound 1-1-po, compound 1-2-po, compound 1-4-po, XMU-MP-1-ip groups. Mice in the vehicle group were administered intragastrically with vehicle control; mice in the compound 1-1-po, compound 1-2-po, compound 1-4-po groups were administered intragastrically with compound 1 at 1 mg/kg, 2 mg/kg or 4 mg/kg, respectively; mice in the XMU-MP-1-ip group were intraperitoneally administered with the control compound XMU-MP-1 at 1 mg/kg. After the administration, the body weight of the mice was monitored and the survival status of the mice was observed.

MIN-6 cells = assay: Proliferation of MIN-6 cells (cell counter); settings: 1 μM, 72 hours
Procedure: The effects of compound 1 and the control compound XMU-MP-1 on MST1 signaling pathway such as autophosphorylation of MST1, apoptosis signaling pathway such as cleavage of four proteins Caspase9/7/3 and PARP, expression of BIM, BAX, BCL-2, BCL-XL protein, proliferation-related signaling pathway such as autophosphorylation of AKT and ERK, and phosphorylation and protein expression of insulin secretion transcription factor PDX1 were tested in mouse pancreatic β-cells, MIN-6 cells (Hunan Fenghuishengwu technology Co., Ltd.). Compound 1 of different concentrations (0 μM, 0.3 μM, 1 μM, 3 μM in DMSO) and XMU-MP-1 of 1 μM (in DMSO) were used to treat the cell line for 72 hours in a medium with a glucose content of 33.3 mM, respectively. One of the control DMSO group involved 5.5 mM glucose and the other one involved 33.3 mM glucose. The samples were collected.
JIMBIO cell counter (EXCEL HERO TECHNOLOGY LIMITED) was used to detect the effect on the proliferation of MIN-6 cells after 72 hours of the administration.

MST1 [2] = biological target: T1, MST1; settings: literature; read-out: IC50 against MST1; cited from earlier work
MAP3K2 = MAP3K2 (Homo sapiens (Human), UniProt Q9Y2U5); settings: literature; cited from earlier work
TAOK = settings: literature; cited from earlier work
PIK3CG = PIK3CG (Homo sapiens (Human), UniProt P48736); settings: literature; cited from earlier work
AURKA = AURKA (Homo sapiens (Human), UniProt O14965); settings: literature; cited from earlier work
MST2 = MST2 (Homo sapiens (Human), UniProt Q13188); settings: read-out: IC50 against MST2; literature; cited from earlier work
Chain of MST2 (Q13188 whole entry, species assumed): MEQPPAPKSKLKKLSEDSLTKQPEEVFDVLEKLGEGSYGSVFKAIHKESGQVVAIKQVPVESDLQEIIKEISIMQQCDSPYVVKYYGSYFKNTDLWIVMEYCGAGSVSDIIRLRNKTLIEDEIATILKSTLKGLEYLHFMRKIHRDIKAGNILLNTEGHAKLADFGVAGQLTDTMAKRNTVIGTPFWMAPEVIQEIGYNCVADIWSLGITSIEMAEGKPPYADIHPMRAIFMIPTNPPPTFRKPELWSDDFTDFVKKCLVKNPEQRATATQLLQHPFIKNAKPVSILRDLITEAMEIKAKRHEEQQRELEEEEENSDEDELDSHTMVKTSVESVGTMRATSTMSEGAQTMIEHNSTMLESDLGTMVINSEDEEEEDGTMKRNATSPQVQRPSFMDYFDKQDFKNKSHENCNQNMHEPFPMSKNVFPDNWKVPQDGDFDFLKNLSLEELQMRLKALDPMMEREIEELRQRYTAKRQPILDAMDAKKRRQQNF

T1 sequence (Q13043 whole entry): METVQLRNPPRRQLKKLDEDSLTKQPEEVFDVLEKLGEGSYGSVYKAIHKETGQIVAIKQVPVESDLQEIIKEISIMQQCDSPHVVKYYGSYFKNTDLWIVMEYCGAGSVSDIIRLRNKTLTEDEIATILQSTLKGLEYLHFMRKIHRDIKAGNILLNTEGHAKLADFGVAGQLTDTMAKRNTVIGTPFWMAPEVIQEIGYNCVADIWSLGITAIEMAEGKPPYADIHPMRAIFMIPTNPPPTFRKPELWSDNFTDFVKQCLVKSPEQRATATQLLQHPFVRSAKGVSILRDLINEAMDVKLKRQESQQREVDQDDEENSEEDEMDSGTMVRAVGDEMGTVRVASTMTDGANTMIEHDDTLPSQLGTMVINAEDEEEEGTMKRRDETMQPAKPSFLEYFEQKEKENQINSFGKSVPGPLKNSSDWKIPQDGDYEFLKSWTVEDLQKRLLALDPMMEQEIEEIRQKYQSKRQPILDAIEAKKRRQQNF
Chain of MAP3K2 (Q9Y2U5 whole entry, species assumed): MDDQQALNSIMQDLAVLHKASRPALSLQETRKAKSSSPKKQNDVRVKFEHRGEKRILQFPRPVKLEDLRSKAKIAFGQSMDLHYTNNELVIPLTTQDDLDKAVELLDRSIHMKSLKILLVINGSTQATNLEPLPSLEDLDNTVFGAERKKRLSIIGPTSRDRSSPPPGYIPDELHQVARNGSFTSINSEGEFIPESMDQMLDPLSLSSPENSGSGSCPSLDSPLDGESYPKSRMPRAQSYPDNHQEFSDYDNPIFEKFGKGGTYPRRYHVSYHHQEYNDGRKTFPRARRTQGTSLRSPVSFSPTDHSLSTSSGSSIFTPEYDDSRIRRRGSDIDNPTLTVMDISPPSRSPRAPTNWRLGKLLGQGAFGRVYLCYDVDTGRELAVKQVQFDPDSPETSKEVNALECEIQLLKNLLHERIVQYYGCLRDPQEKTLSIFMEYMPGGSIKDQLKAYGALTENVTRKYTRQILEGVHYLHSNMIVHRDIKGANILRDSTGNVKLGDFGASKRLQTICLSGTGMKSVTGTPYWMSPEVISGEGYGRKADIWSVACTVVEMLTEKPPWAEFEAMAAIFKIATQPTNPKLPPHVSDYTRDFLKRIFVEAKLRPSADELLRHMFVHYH
Chain of AURKA (O14965 whole entry, species assumed): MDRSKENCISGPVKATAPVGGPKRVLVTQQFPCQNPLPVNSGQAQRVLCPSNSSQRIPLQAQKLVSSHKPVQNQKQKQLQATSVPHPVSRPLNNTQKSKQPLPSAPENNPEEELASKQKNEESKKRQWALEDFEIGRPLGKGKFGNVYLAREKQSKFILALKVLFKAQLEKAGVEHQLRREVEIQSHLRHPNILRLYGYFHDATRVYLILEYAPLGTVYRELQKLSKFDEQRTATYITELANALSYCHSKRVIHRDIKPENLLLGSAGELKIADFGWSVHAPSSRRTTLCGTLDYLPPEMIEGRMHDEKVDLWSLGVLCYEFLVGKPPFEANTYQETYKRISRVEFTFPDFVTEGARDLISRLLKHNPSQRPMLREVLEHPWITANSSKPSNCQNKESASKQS
Chain of PIK3CG (P48736 whole entry, species assumed): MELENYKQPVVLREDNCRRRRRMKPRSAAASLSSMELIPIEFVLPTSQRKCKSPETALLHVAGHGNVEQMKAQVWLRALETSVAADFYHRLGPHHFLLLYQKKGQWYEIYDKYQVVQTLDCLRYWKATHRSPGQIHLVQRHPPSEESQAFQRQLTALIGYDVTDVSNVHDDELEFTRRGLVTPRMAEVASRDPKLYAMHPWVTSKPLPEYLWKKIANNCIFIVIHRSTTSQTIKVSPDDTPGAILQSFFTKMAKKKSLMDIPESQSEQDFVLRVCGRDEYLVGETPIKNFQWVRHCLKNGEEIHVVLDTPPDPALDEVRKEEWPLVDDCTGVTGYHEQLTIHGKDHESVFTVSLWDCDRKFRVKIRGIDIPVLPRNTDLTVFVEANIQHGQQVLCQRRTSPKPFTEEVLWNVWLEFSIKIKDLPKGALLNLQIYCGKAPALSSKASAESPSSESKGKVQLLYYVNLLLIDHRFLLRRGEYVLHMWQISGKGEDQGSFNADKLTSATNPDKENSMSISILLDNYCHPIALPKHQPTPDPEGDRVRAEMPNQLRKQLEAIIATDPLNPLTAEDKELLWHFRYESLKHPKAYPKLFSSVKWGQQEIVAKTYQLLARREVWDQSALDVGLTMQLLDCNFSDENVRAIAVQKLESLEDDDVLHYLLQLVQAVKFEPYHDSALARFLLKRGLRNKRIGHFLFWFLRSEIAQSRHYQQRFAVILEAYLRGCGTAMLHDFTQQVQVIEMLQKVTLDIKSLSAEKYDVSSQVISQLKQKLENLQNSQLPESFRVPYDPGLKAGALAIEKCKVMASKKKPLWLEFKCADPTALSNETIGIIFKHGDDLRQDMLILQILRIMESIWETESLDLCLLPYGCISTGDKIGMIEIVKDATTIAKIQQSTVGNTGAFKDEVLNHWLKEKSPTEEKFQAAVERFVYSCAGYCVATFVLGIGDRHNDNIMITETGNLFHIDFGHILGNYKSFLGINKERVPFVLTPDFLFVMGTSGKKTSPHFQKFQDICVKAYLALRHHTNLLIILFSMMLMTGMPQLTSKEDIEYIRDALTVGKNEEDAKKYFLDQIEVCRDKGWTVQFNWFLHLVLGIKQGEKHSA

CN1C(=O)c2sccc2N(C)c2nc(Nc3ccc(S(N)(=O)=O)cc3)ncc21 [XMU-MP-1]
IC50 (MST1 [1]): 0.121 µM
survival of the mice (C57BL/6 mice; 1 mg/kg intraperitoneally after APAP 600 mg/kg ip): all escaped from death
weight of mice (C57BL/6 mice; after APAP 600 mg/kg ip, compound 1 po 1-4 mg/kg, XMU-MP-1 ip 1 mg/kg): can gradually recover
number of cells (MIN-6 cells): reduced to a certain extent
toxicity to MIN6 cells (MIN-6 cells): toxic to MIN6 cells to a certain extent
IC50 (MST1 [2]): 71 nM
inhibitory effect on MAP3K2 (MAP3K2): significant inhibitory effect
inhibitory effect on TAOK (TAOK): significant inhibitory effect
inhibition of PIK3CG (PIK3CG): inhibited
inhibition of AURKA (AURKA): inhibited
IC50 (MST2): 38 nM
